pEC50: −log10 of the molar value. “And” between values parts separate entries of the source, which are not always exact repeats. Identical values can stand only once.
Legend:
HIV [1] = test: microbe, parasite or virus in culture; type: cell-based; conditions: CEM cells; for pEC50: free HIV, read-out: Activity of Anti-HIV Compounds (EC50), CEMV
Method: (§1) The compounds of Examples were tested for anti-AIDS activity by subjecting them to standard National Cancer Institute ("NCI") in vitro screening procedures. In carrying out each test, two blanks were run. In the first blank, HIV and a culture of a standard human cell line were incubated together to measure the infectivity of the virus. The viability of the cells was measured after holding for six or seven days. In an "effective" test, most cells were infected before the holding period was complete.
In the second blank, the cell line culture and the compound being tested (but not virus) were incubated together to measure the toxicity of the drug to the cellline. The viability of the cells was measured as a function of concentration of the compound, after holding for seven days. Typically, the cells survive at low compound concentrations, but at some higher concentration, toxicity of the compound is manifested and the cells die. The concentration of the test compound that results in 50% inhibition of cell growth is defined as the IC50.
(§2) Finally, the protective effects of the test compounds were measured. Each cell culture and test compound were incubated with the virus and the viability of the cells was measured as a function of compound concentration after holding for six or seven days. If the compound is active in protecting the cells against the virus, there is typically low cell viability until an effective concentration of the test compound is reached. At this point, cell viability increases steadily toward 100% unless the toxic effect of the compound (as measured in the second blank) takes effect. The concentration of the test compound that results in 50% "control," i.e., a 50% reduction of the viral cytopathic effect, is defined as the EC 50. The therapeutic index TI50 is calculated as IC50/EC50.
(§3) Values of test compound concentrations required for between 20 and 50% reduction of the viral cytopathic effect can also be determined. Such compounds are classified as moderately active.
(§4) The compounds were tested to determine their reduction of HIV cytopathic effect on the human cell lines CEM and MT2. Tests were done by innoculating these cell lines either with free HIV (V) or with a virus Previously cultured with host cells (C). Thus, in Table III the designation CEMV means CEM line cells innoculated with free virus and MT2C means MT2 cells innoculated with cultured viral infected MT2 cells. In some cases the compound was also tested on a cell line together with a sub-effective amount of the known HIV viricide AZT. This is done to test possible synergistic effects. Such a test on the CEM line is denoted CEMZ.
1) T4 lymphocytes (CEM cell line) are exposed to HIV at a virus to cell ratio of approximately 0.05 and plated along with non-infected control cells in 96-well microtiter plates.
2) Each candidate agent is dissolved in dimethyl sulfoxide (unless otherwise indicated), then diluted 1:200 in cell culture medium. Further dilutions (five-fold) are prepared before adding to an equal volume of medium containing either infected or noninfected cells.
3) Cultures are incubated at 37° C. in a 5% carbon dioxide atmosphere for seven days (if six days the CEMV test is identified as CEM-6).
(§5) 4) The tetrazolium salt, XTT, is added to all wells, and cultures are incubated to allow formazan color development by viable cells.
(§6) 5) Individual wells are analyzed spectrophotometrically to quantity formazan production, and in addition are viewed microscopically for detection of viable cells and confirmation of protective activity.
(§7) 6) Drug-treated virus-infected cells are compared with drug-treated non-infected cells and with other appropriate controls (untreated infected and untreated non-infected cells, drug-containing wells without cells, etc.) on the same plate.
7) A determination of activity is made. […]

HIV [2] = test: Reduction of HIV cytopathic effect, CEM-IW protocol; type: cell-based; conditions: asterisk: CEMIW protocol; for pEC50: CEM cells, drug added before virus, read-out: Activity of Anti-HIV Compounds (EC50), CEM-IW; for Activity class of Anti-HIV Compounds, CEM-IW: inhibition of viral cytopathic effect
Method: as §1, §2, §3, §4
The aforementioned identifiers are used when a batch was prepared and samples inserted into the wells. In procedures calling for the addition of the drug (or no drug) and the CEM uninfected cells to each well, followed by the subsequent addition of the HIV virus, the protocol is designated as CEM-IW.
as §5, §6, §7
Asterisks indicate the CEMIW protocol.

[3] = Human immunodeficiency virus 1, CCRF-CEM

SMILES	pEC50 (HIV [2]; [3])	pEC50 (HIV [2])	further results
CCCOC(=O)c1cc(NC(=O)C2=C(C)OCCS2)ccc1Cl [Compound 5, Propyl 2-chloro-5-[[(5,6-dihydro-2-methyl-1,4-oxathiin-3-yl)carbonyl]amino]benzoate]	–	–	pEC50 (HIV [1]): 7.22; pEC50 (HIV [1]; [3]): 7.15
C=CCOC(=S)Nc1ccc(Cl)c(C(=O)OC(C)C)c1 [Compound 37]	6.49	6.70	–
CCCCCOC(=S)Nc1ccc(Cl)c(C(=O)OC(C)C)c1 [Compound 36]	5.98	5.86 and 5.88 and 6.05	–
CC(C)OC(=O)c1cc(NC(=O)OC2CCCCC2)ccc1Cl [Compound 102]	–	–	Activity class of Anti-HIV Compounds, CEM-IW (HIV [2]): MA (moderate activity (MA), that is, inhibition between approximately 20 and 50%)
CC(=O)Nc1ccccc1C(=O)Nc1ccc(Cl)c(C(=O)OC(C)C)c1 [Compound 114, 1-Methylethyl 5-[(2-acetamidobenzoyl)amino]-2-chlorobenzoate]	–	–	Activity class of Anti-HIV Compounds, CEM-IW (HIV [2]): MA (moderate activity (MA), that is, inhibition between approximately 20 and 50%)
CCOC(=S)Nc1ccc(Cl)c(C(=O)OC(C)C)c1 [Compound 33]	6.18	6.17 and 6.14	–
CC(=O)Oc1ccc(NC(=O)C2=C(C)OCCS2)cc1C(=O)OC(C)C [Compound 157]	–	–	Activity class of Anti-HIV Compounds, CEM-IW (HIV [2]): MA (moderate activity (MA), that is, inhibition between approximately 20 and 50%)
CCCCCOC(=O)c1cc(NC(=O)C2=C(C)OCCS2)ccc1Cl [Compound 15, Pentyl 2-chloro-5-[[(5,6-dihydro-2-methyl-1,4-oxathiin-3-yl)carbonyl]amino]benzoate]	–	–	pEC50 (HIV [1]): 6.21; pEC50 (HIV [1]; [3]): 6.09
CC(C)OC(=O)c1cc(NC(=S)OC(C)C)ccc1Cl [Compound 32, 1-Methylethyl 2-chloro-5-[[(1-methylethoxy)thioxomethyl]amino]benzoate]	–	–	pEC50 (HIV [1]): 7.23 and 7.52; pEC50 (HIV [1]; [3]): 7.46
COc1ccccc1NC(=O)Nc1ccc(Cl)c(C(=O)OC(C)C)c1 [Compound 99]	–	–	Activity class of Anti-HIV Compounds, CEM-IW (HIV [2]): MA (moderate activity (MA), that is, inhibition between approximately 20 and 50%)
CCCCOC(=O)c1cc(NC(=O)C2=C(C)OCCS2)ccc1Cl [Compound 6, Butyl 2-chloro-5-[[(5,6-dihydro-2-methyl-1,4-oxathiin-3-yl)carbonyl]amino]benzoate]	–	–	pEC50 (HIV [1]; [3]): 7.00
CC1=C(C(=O)Nc2cccc(C#N)c2)SCCO1 [Compound 9, N-(3-Cyanophenyl)-5,6-dihydro-2-methyl-1,4-oxathiin-3-carboxamide]	–	–	Activity class of Anti-HIV Compounds, CEMV (HIV [1]; inhibition of viral cytopathic effect, free virus): MA (moderate activity (MA), that is, inhibition between approximately 20 and 50%)
CCCOC(=S)Nc1ccc(Cl)c(C(=O)OC(C)C)c1 [Compound 35]	6.62	6.74 and 6.70	–
CC1=C(C(=O)Nc2cc(C(=O)OC(C)C)ccc2F)SCCO1 [Compound 13, 1-Methylethyl 3-[[(5,6-dihydro-2-methyl-1,4-oxathiin-3-yl)carbonyl]amino]-4-fluorobenzoate]	–	–	pEC50 (HIV [1]): 4.88; pEC50 (HIV [1]; [3]): 4.82
Cc1oc(C)c(C(=S)Nc2ccc(Cl)c(C(=O)OC(C)C)c2)c1C [Compound 58, 1-Methylethyl 2-chloro-5-[(2,4,5-trimethyl 3-furanyl)thioxomethyl]amino1benzoate]	6.06	6.12 and 5.97 and 6.05	–
CCCCOC(=O)c1cc(NC(=S)OC(C)C)ccc1Cl [Compound 153]	7.14	7.37 and 7.28	–
CCCSC(=Nc1ccc(Cl)c(C(=O)OC(C)C)c1)OC(C)C [Compound 52]	5.61	5.61 and 5.71	–
CCC(C)OC(=O)c1cc(NC(=S)OC(C)C)ccc1Cl (centres unmarked) [Compound 152]	7.14	7.38 and 7.43 and 7.24	–
Cc1occc1C(=S)Nc1ccc(Cl)c(C(=O)OC(C)C)c1 [Compound 59, 1-methylethyl 2-chloro-5-[(2-methyl-3-furanyl)thioxomethyl]amino benzoate]	7.37	7.43	–

SMILES	pEC50 (HIV [2]; [3])	pEC50 (HIV [2])	further results
CCC(CC)OC(=O)c1cc(NC(=S)OC(C)C)ccc1Cl [Compound 151]	7.02	7.07 and 7.11 and 7.27	–
CCOC(=O)c1cc(NC(=S)OC(C)C)ccc1SC [Compound 145]	6.59	6.43 and 6.61 and 6.37	–
CC(C)OC(=O)c1cc(NC(=S)OCC2CCCO2)ccc1Cl (centres unmarked) [Compound 43]	–	–	Activity class of Anti-HIV Compounds, CEM-IW (HIV [2]): MA (moderate activity (MA), that is, inhibition between approximately 20 and 50%)
CCOC(=O)c1cc(NC(=O)C2=C(C)OCCS2)ccc1Cl [Compound 4, Ethyl 2-chloro-5-[[(5,6-dihydro-2-methyl-1,4-oxathiin-3-yl)carbonyl]amino]benzoate]	–	–	pEC50 (HIV [1]): 6.52 and 6.70; pEC50 (HIV [1]; [3]): 6.40
CC(C)OC(=O)c1cc(NC(=O)c2c(Br)c(Br)c(Br)c(Br)c2C(=O)O)ccc1Cl [Compound 21, 2,3,4,5-Tetrabromo-6-[[[4-chloro-3-[(1-methylethoxy)carbonyl]phenyl]amino]carbonyl]benzoic acid]	–	–	pEC50 (HIV [1]): 4.44; pEC50 (HIV [1]; [3]): 4.24
CCOC(=O)c1cc(NC(=S)OC(C)C)ccc1C [Compound 150]	6.68	6.64 and 6.53 and 6.48	–
CC(C)OC(=O)c1cc(NC(=S)OC2C=CCCC2)ccc1Cl (centres unmarked) [Compound 39]	5.96	5.83 and 5.76 and 5.84	–
CCC(=O)Oc1ccc(NC(=O)C2=C(C)OCCS2)cc1C(=O)OC(C)C [Compound 158]	5.21	5.17 and 5.35 and 5.44	–
CC(C)OC(=O)c1cc(NC(=S)c2ccccc2)ccc1Cl [Compound 61, Benzoic acid, 2-chloro-5-(phenylthioxomethyl) amino-, 1-methylethyl ester]	6.41	6.21 and 6.38 and 6.35	–
CCOC(=O)c1cc(NC(=S)OC(C)C)ccc1Cl [Compound 148]	–	–	Activity class of Anti-HIV Compounds, CEM-IW (HIV [2]): MA (moderate activity (MA), that is, inhibition between approximately 20 and 50%)
CC(C)OC(=O)c1cc(NC(=O)c2ccccc2I)ccc1Cl [Compound 82, 1-Methylethyl 2-chloro-5-[(2-iodobenzoyl)amino]benzoate]	5.57	5.59 and 5.67 and 5.54	–
CCCOC(=O)c1cc(NC(=S)OC(C)C)ccc1Cl [Compound 154]	7.35	–	–
CC1=C(C(=O)Nc2ccc(O)c(C(=O)OC(C)C)c2)SCCO1 [Compound 112, 1-Methylethyl 5-[[(5,6-dihydro-2-methyl-1,4-oxathiin-3-yl)-carbonyl]amino]-2-hydroxybenzoate]	–	–	Activity class of Anti-HIV Compounds, CEM-IW (HIV [2]): MA (moderate activity (MA), that is, inhibition between approximately 20 and 50%)
COc1ccccc1C(=O)Nc1ccc(Cl)c(C(=O)OCC2CCCO2)c1 (centres unmarked) [Compound 83, Tetrahydro-2-furanylmethyl 2-chloro-5-[(2-methoxybenzoyl)-amino]benzoate]	–	–	Activity class of Anti-HIV Compounds, CEM-IW (HIV [2]): MA (moderate activity (MA), that is, inhibition between approximately 20 and 50%)
CC1=C(C(=O)Nc2ccccc2C(=O)Nc2ccc(Cl)c(C(=O)OC(C)C)c2)SCCO1 [Compound 147]	6.23	6.22	–
COC(=O)c1ccccc1S(=O)(=O)NC(=O)Nc1ccc(Cl)c(C(=O)OC(C)C)c1 [Compound 130]	–	–	Activity class of Anti-HIV Compounds, CEM-IW (HIV [2]): MA (moderate activity (MA), that is, inhibition between approximately 20 and 50%)
CC(C)OC(=O)c1cc(NC(=S)OCc2ccccc2)ccc1Cl [Compound 117]	–	–	Activity class of Anti-HIV Compounds, CEM-IW (HIV [2]): MA (moderate activity (MA), that is, inhibition between approximately 20 and 50%)
CC(C)OC(=O)c1cc(NC(=NS(=O)(=O)c2ccccc2)c2ccccc2F)ccc1Cl [Compound 131]	–	–	Activity class of Anti-HIV Compounds, CEM-IW (HIV [2]): MA (moderate activity (MA), that is, inhibition between approximately 20 and 50%)
COc1ccccc1C(=S)Nc1ccc(Cl)c(C(=O)OC(C)C)c1 [Compound 65]	6.32	6.39 and 6.23 and 6.29	–
